{"source": "paper PMC4721142", "about": "“Randomized controlled studies on the efficacy of antiarthritic agents in inhibiting cartilage degeneration and pain associated with progression of osteoarthritis in the rat” (Arthritis Research & Therapy, 2016)", "key": {"RAW 264.7 cells": {"tested_on": "RAW 264.7 cells", "assay": "RANKL-mediated osteoclastogenesis / matrix resorption (Osteologic) assay", "type": "cell-based, murine", "description": "RAW 264.7 cells (American Type Culture Collection [ATCC], Manassas, VA, USA), a murine monocytic cell line that differentiates in the presence of RANKL, was used for measurements of osteoclastogenesis and osteoclast activity. Cells were amplified on nonadherent culture substratum in high-glucose Dulbecco’s modified Eagle’s medium (DMEM) containing 10 % fetal bovine serum (FBS) and penicillin-streptomycin in a 37 °C, 5 % CO2, humidified incubator and were passaged by manual dissociation. […] Plates were subsequently rinsed, bleached, dried, and analyzed for matrix degradation using a Nikon COOLSCOPE (Nikon Instruments, Melville, NY, USA). Matrix resorption was quantified using EclipseNet (Nikon Instruments)/Visiopharm (Visiopharm, Hørsholm, Denmark) software (see Additional file 1).\nIn Vitro Osteoclastogenesis\nOsteoclastogenic activity was measured using BD osteologic plates and quantitation of the degree of bone matrix digestion on the plate surface. Images from the BD Osteologic assay used to […]\nleft pane depicts an example of a control well after removal of cells from matrix. Pseudocoloring of matrix (blue) and pits (green) is shown in the far right pane. A transparent overlay of the two images is shown in the center.\nFigure 5 - Measurement of drug effects on osteoclastogenesis and osteoclast activity.\nComparisons were made between RANKL treated control wells and wells treated with both RANKL and […]\nAgents were initially tested either during differentiation or post differentiation in the bone assay […]\n(e.g., Figure 2, Sulfazalazine). […]\nindicated (*/**: p < 0.05/0.01, unpaired t-test versus RANKL control). […]"}, "MMP-13": {"tested_on": "MMP-13", "assay": "MMP-13 ELISA on supernatants of TNF-α-treated chondrogenic pellets", "type": "cell-based, human"}, "[1]": {"assay": "Comparison of in vitro screens: overlapping effective and nontoxic range;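 further: compares non-toxic ranges in synovial cells and chondrocytes with effective ranges against NFkB, MMP-13 and osteoclasts, giving their overlap as the predicted efficacy range in uM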"}, "MIA rat model of OA [2]": {"tested_on": "MIA rat model of OA", "assay": "MIA trial 3 digital Randall-Selitto test (weekly i.a. clonidine 4.5 μg, tacrolimus 30 ng, fluocinolone 15 ng, meloxicam 100 μg, tranilast 500 ng, TH 150 μg; clonidine 100 μg/kg s.c.)", "type": "in vivo", "description": "The digital Randall-Selitto (dRS) test is said to be a reliable and repeatable measure of neuropathic, bone, and inflammatory pain behavior in several different models, including those of arthritic or joint pain [29, 31, 32]. Baseline and posttreatment values were evaluated using a dRS test device (IITC Life Science, Woodland Hills, CA, USA). Animals were allowed to acclimate to the testing room before all experimentation and for a minimum of 30 minutes before testing. To ensure that their hind limbs were accessible, the animals were gently suspended in a restraint sling. The joint compression threshold was measured once at each time point for the ipsilateral and contralateral knee joints. Pressure was applied gradually over approximately 10 seconds to the medial and lateral aspects of the knee joint. Measurements were taken from the first observed behavior of vocalization, struggle, or withdrawal. A cutoff value of 600 g was used to prevent injury to the animal.\nFollowing isoflurane anesthesia, 50 μl (2 mg) of MIA was injected into the synovial space of the left knee. Animals were randomly assigned to groups, and pain behavior was assessed 7, 14, 21, and 28 days following MIA injection and intervention using WB with the Stoelting incapacitance meter (trial 1) or the dRS test (trials 2 and 3). […] Animals received MIA treatment and then saline control or therapeutic. […] Histopathology was performed at each time point and at study termination. All studies were conducted in accordance with the International Association for the Study of Pain Guidelines and were approved by the Algos Therapeutics, Inc. Institutional Animal Care and Use Committee (IACUC) before initiation. Those running the studies were blind to the treatments. See Additional file 1 for further details. […]\nstruggle or withdrawal. A cut-off value of 600 g was used to prevent injury to the animal. The mean and standard error of the mean (SEM) were determined for each treatment group.\nStatistical significance was assigned as p ≤ 0.05. The stability of the vehicle group over time was assessed on each testing day (Days 7, 14, 21, and 28) using repeated measures one-way analysis of variance (ANOVA) comparing joint compression thresholds at each experimental time point on a given testing day versus that testing day’s pre-treatment value. Osteoarthritis-related pain in the vehicle group was estimated at each time point on each testing day by comparing ipsilateral (injured) to contralateral (normal) joint compression thresholds using paired t-tests. The progression of osteoarthritis-related pain in the vehicle group was estimated by comparing pre-treatment joint compression thresholds on each testing day versus pre-MIA measurements using repeated measures one-way ANOVA. […]\nthresholds at each experimental time point on a given testing day with vehicle treated animals using an unpaired t-test. The acute effect of Tacrolimus was analyzed by comparing joint compression thresholds at each time point on a given testing day with the corresponding pre-treatment baseline values using repeated measures one-way ANOVA and compared to vehicle treated animals using […]\nvalues using repeated measures one-way ANOVA. Chronic effects were analyzed by comparing pre-treatment joint compression thresholds on each testing day versus the appropriate Day 7 pre-treatment values using repeated measures one-way ANOVA and by comparing pre-treatment joint compression thresholds with vehicle treated animals on each testing day using an unpaired t-test or one-way ANOVA. Day 7 pre-treatment joint compression thresholds between all groups were assessed using one-way ANOVA. The Dunnett’s multiple comparison post hoc test was used when […]\ndosing were housed three per cage. Animals had free access to food and water and were maintained […]\nThe animal colony was maintained at approximately 21 °C. All experiments were conducted in accordance with the International Association for the Study of Pain Guidelines."}, "MIA rat model of OA [3]": {"tested_on": "MIA rat model of OA", "assay": "MIA trial 3 histopathology (same doses as dRS test)", "type": "in vivo", "design": "key to Cartilage matrix damage score: 5-point cartilage matrix score; key to Mean of all cartilage loss: approximate % loss, mean of four articular surfaces; Subchondral bone sclerosis: scale not given here", "source_text": "For MIA trial 3, joints were fixed and toluidine blue–stained sections of the rat knees were comprehensively analyzed from test and control subjects as detailed in Additional file 1. Briefly, a 5-point cartilage matrix score was derived based upon (1) approximate percentage of total loss of articular chondrocytes for each of four articular surfaces, (2) estimated proteoglycan loss (via Safranin O staining), and (3) loss of interstitial matrix. Chondrocyte necrosis and proteolytic degeneration of the femurs were scored on a 5-point scale as in trial 1. A femoral cartilage degeneration score and a three-zone sum of the tibial cartilage degeneration scores (mean of three levels) were also summed to create a total cartilage degeneration score. The mean osteophyte score for each joint was added to this value to create a total joint score with matrix. Other parameters assessed included synovial membrane inflammation and proliferation. Representative images from each group were also collected (see, e.g., Fig. 4 and Additional file 1: Fig. S55, Trial 3). […]\nHawes, APS, Pathologist). Treatments were masked during the assessment. Chondrocyte necrosis and proteolytic degeneration of the femurs were scored on a 5 point scale with 0 = None; 1 = <10%; […]\nFor the histopathology of the MIA model in Trial 3, completed by Bolder BioPATH (and Dr.\nBendele), a tolouidine blue stained slide containing both halves of the joint was comprehensively analyzed from test and control subjects. Approximate % of total loss of articular chondrocytes, loss of proteoglycan and loss of collagenous matrix were determined for each articular surface (medial tibial plateau (MTP), lateral tibial plateau (LTP), medial femoral condyle (MFC), and lateral femoral condyle (LFC). Chondrocyte loss was quantified by estimating the area of cartilage in which there were no apparently viable chondrocytes and proteoglycan loss was quantified by estimating differences in intensity of toluidine blue matrix staining. Loss of interstitial matrix was an indication of disruption and diminished type II collagen. Based on the mean % loss for the four surfaces in these parameters, a five point matrix score was utilized with the subchondral bone resorption, subchondral bone sclerosis and osteophyte scores to achieve a total joint score. […]\n[…] steps, stained with toluidine blue (with a right and left halve per section), and analyzed for cartilage degeneration, proteoglycan loss, collagen damage, and osteophyte formation. Results were averaged across the 3 sections for an overall semi-quantitative score. Regional differences across the tibial plateau were taken into consideration by dividing each section into 3 zones delineated using an ocular micrometer (outside, middle, and inside). Scores were based on the percentage of area affected within the zone.\nCartilage degeneration in the tibia was scored on a five point scale for each zone, collagen damage across the medial tibial plateau was measured by total width for each grade damage. Cartilage degeneration in the tibia was scored none to severe (numerical values 0-5) for each zone (area defined by micrometer) using the following criteria: […]"}, "[4]": {"tested_on": "Normal human articular chondrocytes", "assay": "Cytotoxicity to chondrogenic pellets (CellTiter-Blue)"}, "SW982": {"tested_on": "SW982", "assay": "Synovial toxicity (CellTiter-Glo), with or without TNF-α"}}, "note": "Values joined by “and” are separate entries in the source; they are usually repeats but may differ in a detail not shown here. Identical values can stand only once.", "data": [{"smiles": "Cc1cnc(NC(=O)C2=C(O)c3ccccc3S(=O)(=O)N2C)s1", "note": "[Meloxicam]", "values": [{"measurement": "Effective range against Osteoclasts", "setting": "RAW 264.7 cells", "result": "Not effective"}, {"measurement": "Effective range against MMP-13", "setting": "MMP-13", "result": "Not effective"}, {"measurement": "Non-toxic & predicted range of efficacy", "setting": "[1]", "result": "16 to 32", "unit": "µM"}, {"measurement": "Overlapping effective and nontoxic range", "setting": "[1]; inhibits with minimal or no toxicity to synovium or cartilage, overlapping range if effective in more than one assay", "result": "16 to 32", "unit": "µM"}, {"measurement": "dRS, hours after dosing with significant difference", "setting": "MIA rat model of OA [2]; day 7", "result": 1, "unit": "h"}, {"measurement": "dRS, hours after dosing with significant difference", "setting": "MIA rat model of OA [2]; day 14", "result": 3, "unit": "h"}, {"measurement": "Bone resorption percent, LFC", "setting": "MIA rat model of OA [3]; group mean, i.a. weekly", "result": 0, "unit": "%"}, {"measurement": "Bone resorption percent, LTP", "setting": "MIA rat model of OA [3]; group mean, i.a. weekly", "result": 0, "unit": "%"}, {"measurement": "Bone resorption percent, MFC", "setting": "MIA rat model of OA [3]; group mean, i.a. weekly", "result": 15, "unit": "%"}, {"measurement": "Bone resorption percent, MTP", "setting": "MIA rat model of OA [3]; group mean, i.a. weekly", "result": 15, "unit": "%"}, {"measurement": "Bone resorption percent, mean", "setting": "MIA rat model of OA [3]; group mean, i.a. weekly", "result": 8, "unit": "%"}, {"measurement": "Bone resorption score", "setting": "MIA rat model of OA [3]; group mean, i.a. weekly", "result": 1.0}, {"measurement": "Cartilage matrix damage score", "setting": "MIA rat model of OA [3]; group mean, i.a. weekly", "result": "1.0 and 1.0 ± 0.0"}, {"measurement": "Mean of all cartilage loss", "setting": "MIA rat model of OA [3]; group mean, i.a. weekly", "result": 9.7}, {"measurement": "Osteophyte measure", "setting": "MIA rat model of OA [3]; group mean, i.a. weekly", "result": 146.7, "unit": "µm"}, {"measurement": "Osteophyte score", "setting": "MIA rat model of OA [3]; group mean, i.a. weekly", "result": 0.7}, {"measurement": "Subchondral bone sclerosis", "setting": "MIA rat model of OA [3]; group mean, i.a. weekly", "result": 0.3}, {"measurement": "Total joint score w/o matrix", "setting": "MIA rat model of OA [3]; group mean, i.a. weekly", "result": 2.0}, {"measurement": "Total joint score with matrix", "setting": "MIA rat model of OA [3]; group mean, i.a. weekly", "result": "3.0 and 3.0 ± 1.2"}, {"measurement": "Decrease of total joint score vs vehicle controls", "setting": "MIA rat model of OA [3]; meloxicam 100 μg i.a.", "result": 47, "unit": "%"}, {"measurement": "Non-toxic range (Chondrocyte)", "setting": "[4]", "result": "0.125 to 8", "unit": "M"}, {"measurement": "Non-toxic range (Synovial)", "setting": "SW982", "result": "0.25 to 16", "unit": "µM"}]}]}
